According to patent publication US20240124442A1, “TRICYCLIC-AMIDO-BICYCLIC PRMT5 INHIBITORS” (AMGEN INC., priority 2021, published 2024):

Assays:
HCT116 MTAP null cells = test: HCT116 MTAP null cell line proliferation / cell viability (CellTiter-Glo, 6 days); type: cell-based; conditions: 144 h; HCT116 MTAP null cells, 6 days treatment, CellTiter-Glo cell viability; read-out: HCT-116 MTAP null IC50
Procedure, shortened: (§1)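 Anti-proliferative IC50s were derived from CellTiter-Glo signal in HCT116 parent and MTAP-null cells after six days on compound. Serial dilutions reached top concentrations of 1, 10 or 50 μM, with DMSO-only wells as control.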

HCT116 WT cells = test: HCT116 WT (parent) cell line proliferation / cell viability (CellTiter-Glo, 6 days); type: cell-based; conditions: Homo sapiens, HCT-116, 144 h, 6 days treatment
Procedure, shortened: as §1

SMILES	IC50 (HCT116 MTAP null cells)	IC50 (HCT116 WT cells)
CN(C(=O)c1ccc2nc(N)c3c(cnn3C)c2c1)[C@@H]1COc2cc(C(F)(F)F)ccc21 (single isomer, unassigned) [Example 575]	179 nM	7610 nM
CN=S(C)(=O)c1ccc2c(c1)OC[C@H]2N(C)C(=O)c1cc2c3c(c(N)nc2cc1F)COC3 (mixture of isomers) [Example 463, 4-amino-N-((3S)-6-((R)-N,S-dimethylsulfonimidoyl)-2,3-dihydro-1-benzofuran-3-yl)-7-fluoro-N-methyl-1,3-dihydrofuro[3,4-c]quinoline-8-carboxamide and 4-amino-N-((3S)-6-((S)-N,S-dimethylsulfonimidoyl)-2,3-dihydro-1-benzofuran-3-yl)-7-fluoro-N-methyl-1,3-dihydrofuro[3,4-c]quinoline-8-carboxamide]	134 nM	14700 nM
CN(C(=O)c1ccc2nc(N)c3c(c2c1)COC3)[C@@H]1COc2cc(S(F)(F)(F)(F)F)ccc21 (single isomer, unassigned) [Example 327]	11 nM	457 nM
Cc1cc2nc(N)c3cnn(C)c3c2cc1C(=O)N(C)[C@@H]1COCc2nc(Br)ccc21 [Example 298, 4-amino-N-((5S)-2-bromo-5,8-dihydro-6H-pyrano[3,4-b]-pyridin-5-yl)-N,1,7-trimethyl-1H-pyrazolo[4,3-c]quinoline-8-carboxamide]	1 nM	16 nM
CN(C(=O)c1ccc2nc(N)c3cnn(C)c3c2c1)[C@@H]1COc2cc(-c3cn[nH]c3)ccc21 [Example 622, (S)—N-(6-(1H-pyrazol-4-yl)-2,3-dihydrobenzofuran-3-yl)-4-amino-N,1-dimethyl-1H-pyrazolo[4,3-c]quinoline-8-carboxamide]	14 nM	877 nM
CN(C(=O)c1cc2c(cc1F)nc(N)c1cnn(C)c12)[C@H]1COCc2cc(OC(F)(F)F)ccc21 (single isomer, unassigned) [Example 431]	305 nM	5880 nM
CN(C(=O)c1ccc2nc(N)c3cnn(C)c3c2c1)[C@@H]1COc2cc(-c3ccnn3C)ccc21 [Example 630, 4-amino-N,1-dimethyl-N-((3S)-6-(1-methyl-1H-pyrazol-5-yl)-2,3-dihydro-1-benzofuran-3-yl)-1H-pyrazolo[4,3-c]quinoline-8-carboxamide]	3 nM	222 nM
Nc1nc2ccc(C(=O)N(CC3CC3)[C@@H]3COc4cc(C(F)(F)F)ccc43)cc2c2c1COC2 (single isomer, unassigned) [Example 535]	7 nM	198 nM
CN(C(=O)c1cc2c3c(c(N)nc2cn1)COC3)[C@H]1CCc2cc(OC(F)(F)F)ccc21 (single isomer, unassigned) [Example 342]	4440 nM	28000 nM
CCN(C(=O)c1ccc2nc(N)c3c(c2c1)COC3)[C@@H]1COc2cc(C(F)(F)F)ccc21 (single isomer, unassigned) [Example 533]	17 nM	816 nM
CN(C(=O)c1ccc2nc(N)c3cnn(C)c3c2c1)[C@H]1CCc2nc(C(F)(F)F)ccc21 (single isomer, unassigned) [Example 364]	2860 nM	34900 nM
CN(C(=O)c1cc2c(cc1F)nc(N)c1c2cnn1C)C1COc2cc(C#N)ccc21 (racemic) [Example 482, 4-amino-N-((3R)-6-cyano-2,3-dihydro-1-benzofuran-3-yl)-7-fluoro-N,3-dimethyl-3H-pyrazolo[3,4-c]quinoline-8-carboxamide and 4-amino-N-((3S)-6-cyano-2,3-dihydro-1-benzofuran-3-yl)-7-fluoro-N,3-dimethyl-3H-pyrazolo[3,4-c]quinoline-8-carboxamide]	166 nM	17500 nM
CN(C(=O)c1cc2c(cn1)nc(N)c1cnn(C)c12)[C@@H]1COCc2nc(C(F)(F)F)ccc21 [Example 289, 4-amino-N,1-dimethyl-N-((5S)-2-(trifluoromethyl)-5,8-dihydro-6H-pyrano[3,4-b]pyridin-5-yl)-1H-pyrazolo[4,3-c][1,7]naph-thyridine-8-carboxamide]	16 nM	357 nM
